Among the data in the SangsterLogP compilation are logP values, retold here.

Data set [1] in a line: method code SF-HPLC, from DOI: 10.1021/js990112s, PMID: 10585226.

For `COc1ccc(-c2cnccn2)cc1`, in data set [1], the log partition coefficient (logP) (as a rule, the decadic logarithm of the partition coefficient of the neutral form, usually between octanol and water) came out at 2.24.

For the compound `COc1ccc(-c2ncc(C#N)nc2-c2ccc(OC)cc2)cc1`, the logP was determined as 3.7.

For the compound `COc1ccc(-c2ncc(C)nc2-c2ccc(OC)cc2)cc1`, the logP turned out to be 3.66.

Take `Clc1cnc(-c2ccccc2)c(-c2ccccc2)n1`: the logP amounted to 4.05.

Take `CCOc1cnc(-c2ccc(OC)cc2)c(-c2ccc(OC)cc2)n1`: the logP came out at 4.22.

`Cc1nc(Cl)c(C)[n+]([O-])c1Cl` came in with a logP of 1.08.

Compound `Cc1nc(Cl)c(C)nc1Cl` showed a logP of 2.4.

Consider `COc1ccc(-c2ncc(Cl)nc2-c2ccc(OC)cc2)cc1`, for which the logP was 4.3.

`Cc1cnc(-c2ccccc2)c(-c2ccccc2)n1` came in with a logP of 3.52.

As to `COc1cnc(-c2ccccc2)c(-c2ccccc2)n1`, the log partition coefficient (logP) is 4.21.

`COc1ccc(-c2nc(C)c(C)nc2-c2ccc(OC)cc2)cc1` returned a logP of 4.1.

With `Cc1ccc(-c2nccnc2-c2ccc(C)cc2)cc1`, the lipophilicity (logP) turned out to be 4.1.

`Cc1ncc(C)[n+]([O-])c1Cl` returned a lipophilicity (logP) of 0.19.

`Cc1nc(C)c(-c2ccccc2)nc1-c1ccccc1` had a lipophilicity (logP) of 4.83.

For `[O-][n+]1cc(Cl)nc(-c2ccc(Cl)cc2)c1-c1ccc(Cl)cc1`, the logP worked out at 3.66.

`COC(=O)c1cnc(-c2ccc(OC)cc2)c(-c2ccc(OC)cc2)n1` showed a lipophilicity (logP) of 3.41.

Compound `COc1ccc(-c2ncc(OC)nc2-c2ccc(OC)cc2)cc1` displayed a log partition coefficient (logP) of 4.47.

As for `Fc1ccc(-c2nccnc2-c2ccc(F)cc2)cc1`, the logP came out at 3.75.

In turn, `c1ccc(-c2nccnc2-c2ccccc2)cc1` returned a lipophilicity (logP) of 3.19.

`N#Cc1ccc(-c2nccnc2-c2ccc(C#N)cc2)cc1` came in with a logP of 2.52.

`COc1ccc(-c2nccnc2-c2ccc(OC)cc2)cc1`: the log partition coefficient (logP) stood at 3.42.

`c1ccc(-c2cnccn2)cc1` had a logP in data set [1] of 2.07.

For the compound `CCOc1cnc(-c2ccccc2)c(-c2ccccc2)n1`, the logP turned out to be 4.73.

In turn, `Cc1c[n+]([O-])c(C)c(Cl)n1` gave a logP of 0.44.

For the compound `CC(C)c1cnc(-c2ccccc2)c(-c2ccccc2)n1`, the logP is 4.71.

Regarding `CCc1nc(-c2ccccc2)cnc1-c1ccccc1`, the logP was found to be 4.94.

Turning to `COc1ccccc1Cc1cnc(-c2ccccc2)c(-c2ccccc2)n1`, the logP was 5.2.

Compound `Cc1nc(-c2ccccc2)cnc1-c1ccccc1` yielded a log partition coefficient (logP) of 4.28.

As for `Brc1ccc(-c2nccnc2-c2ccc(Br)cc2)cc1`, the logP amounted to 3.41.
